Assay results reported in ChEMBL document CHEMBL1155486, “From 6-aminoquinolone antibacterials to 6-amino-7-thiopyranopyridinylquinolone ethyl esters as inhibitors of Staphylococcus aureus multidrug efflux pumps” (2010).
≈ marks a conversion by molar mass, not a printed value.

Tests used:
Staphylococcus aureus [1] = assay: Antibacterial activity against Staphylococcus aureus SA-1199B norA++ and A116E GrlA mutation by microdilution technique; type: functional
Staphylococcus aureus [2] = assay: Antibacterial activity against Staphylococcus aureus ATCC 25923 by microdilution technique; type: functional
Staphylococcus aureus [3] = assay: Antibacterial activity against wild-type norA expressing Staphylococcus aureus SA-1199 by microdilution technique; type: functional
Escherichia coli = assay: Antibacterial activity against Escherichia coli ATCC 25922 by microdilution technique; type: functional
Staphylococcus aureus [4] = assay: Antibacterial activity against methicillin and ciprofloxacin-resistant Staphylococcus aureus 25A by microdilution technique; type: functional
Staphylococcus aureus [5] = assay: Antibacterial activity against Staphylococcus aureus SA-K1902 bearing norA- deficient mutation by microdilution technique; type: functional
Staphylococcus aureus [6] = assay: Antibacterial activity against Staphylococcus aureus SA-K1904 bearing norA++ efficient mutation by microdilution technique; type: functional
[7] = target: T1, Quinolone resistance protein NorA (Staphylococcus aureus) (UniProt P0A0J7); assay: Inhibition of NorA in Staphylococcus aureus SA-1199B assessed as reduction in ethidium bromide efflux at 50 uM by fluorimetry; design: scale not given: the % may be the effect or the level left
T1 sequence (whole entry): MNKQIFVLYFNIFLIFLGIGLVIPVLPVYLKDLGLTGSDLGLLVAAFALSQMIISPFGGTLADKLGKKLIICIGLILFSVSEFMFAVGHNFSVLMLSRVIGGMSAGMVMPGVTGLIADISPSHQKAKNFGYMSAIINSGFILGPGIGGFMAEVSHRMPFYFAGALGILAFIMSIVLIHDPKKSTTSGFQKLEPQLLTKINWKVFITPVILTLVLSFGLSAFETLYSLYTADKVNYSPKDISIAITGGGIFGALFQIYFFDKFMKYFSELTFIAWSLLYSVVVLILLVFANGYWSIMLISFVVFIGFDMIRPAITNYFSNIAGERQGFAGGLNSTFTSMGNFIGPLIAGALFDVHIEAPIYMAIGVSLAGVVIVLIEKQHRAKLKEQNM

Staphylococcus aureus [8] = assay: Antibacterial activity against Staphylococcus aureus SA-1199B by EtBr efflux assay; type: functional
Staphylococcus aureus [9] = assay: Antibacterial activity against Staphylococcus aureus K1640 bearing S84L mutant GyrA and S80Y mutant GrlA by microdilution technique; type: functional
Staphylococcus aureus [10] = assay: Antibacterial activity against Staphylococcus aureus K1134 bearing wild-type GyrA and S80Y mutant GrlA by microdilution technique; type: functional
Staphylococcus aureus [11] = assay: Antibacterial activity against Staphylococcus aureus K1305 bearing wild-type GyrA and E84K mutant GrlA by microdilution technique; type: functional
Staphylococcus aureus [12] = assay: Antibacterial activity against Staphylococcus aureus K1628 bearing S84L mutant GyrA and S80F mutant GrlA by microdilution technique; type: functional
Staphylococcus aureus [13] = assay: Antibacterial activity against Staphylococcus aureus K1035 bearing wild-type GyrA and S80F mutant GrlA by microdilution technique; type: functional

| Activity [7] [%] | MIC (Staphylococcus aureus [8]) [µg/mL] | SMILES | MIC (Staphylococcus aureus [1]) [µg/mL] | MIC (Staphylococcus aureus [2]) [µg/mL] | MIC (Staphylococcus aureus [3]) [µg/mL] | MIC (Escherichia coli) [µg/mL] | MIC (Staphylococcus aureus [4]) [µg/mL] | MIC (Staphylococcus aureus [5]) [µg/mL] | MIC (Staphylococcus aureus [6]) [µg/mL] | MIC (Staphylococcus aureus [9]) [µg/mL] | MIC (Staphylococcus aureus [10]) [µg/mL] | MIC (Staphylococcus aureus [11]) [µg/mL] | MIC (Staphylococcus aureus [12]) [µg/mL] | MIC (Staphylococcus aureus [13]) [µg/mL] |
| --- | --- | --- | --- | --- | --- | --- | --- | --- | --- | --- | --- | --- | --- | --- |
|  |  | CO/N=C1/C2=C(CCN(c3cc4c(cc3F)c(=O)c(C(=O)O)cn4C3CC3)C2)SCC1C (centres undefined) | 5 (≈ 10.9 µM) | 2 (≈ 4.37 µM) | 2.5 (≈ 5.46 µM) | 64 (≈ 140 µM) | 8 (≈ 17.5 µM) | 2.5 (≈ 5.46 µM) | 2.5 (≈ 5.46 µM) |  |  |  |  |  |
| 84.8 |  | COC(=O)[C@H]1[C@H]2C[C@@H]3c4[nH]c5cc(OC)ccc5c4CCN3C[C@H]2C[C@@H](OC(=O)c2cc(OC)c(OC)c(OC)c2)[C@@H]1OC |  |  |  |  |  |  |  |  |  |  |  |  |
|  |  | Nc1cc2c(=O)c(C(=O)O)cn(C3CC3)c2cc1N1CCC2=C(C1)C(=O)CCS2 | 25 (≈ 60.8 µM) | 6.25 (≈ 15.2 µM) | 1.56 (≈ 3.79 µM) | 128 (≈ 311 µM) | > 128 | 3.13 (≈ 7.61 µM) | 6.25 (≈ 15.2 µM) |  |  |  |  |  |
| 26.3 | > 100 | CCOC(=O)c1cn(C2CC2)c2cc(N3CCC4=C(C3)C(O)CCS4)c(N)cc2c1=O (centres undefined) |  |  |  |  |  |  |  |  |  |  |  |  |
|  |  | Cc1c(N2CCC3=C(C2)C(=O)C(C)CS3)c(N)cc2c(=O)c(C(=O)O)cn(C3CC3)c12 (centres undefined) | 0.31 (≈ 0.705 µM) | 0.08 (≈ 0.182 µM) | 0.16 (≈ 0.364 µM) | 64 (≈ 146 µM) | 32 (≈ 72.8 µM) | 0.16 (≈ 0.364 µM) | 0.16 (≈ 0.364 µM) | > 10 | 1.25 (≈ 2.84 µM) | 1.25 (≈ 2.84 µM) | > 10 | 1.25 (≈ 2.84 µM) |
|  |  | CC1CSC2=C(CN(c3cc4c(cc3F)c(=O)c(C(=O)O)cn4C3CC3)CC2)/C1=N/O (centres undefined) | 0.31 (≈ 0.699 µM) | 0.31 (≈ 0.699 µM) | 0.16 (≈ 0.361 µM) | 32 (≈ 72.2 µM) | 4 (≈ 9.02 µM) | 0.16 (≈ 0.361 µM) | 0.31 (≈ 0.699 µM) | > 10 | 1.25 (≈ 2.82 µM) | 1.25 (≈ 2.82 µM) | > 10 | 1.25 (≈ 2.82 µM) |
|  |  | Cc1c(N2CCC3=C(C2)/C(=N/O)CCS3)c(N)cc2c(=O)c(C(=O)O)cn(C3CC3)c12 | 2.5 (≈ 5.68 µM) | 0.31 (≈ 0.704 µM) | 0.63 (≈ 1.43 µM) | 0.5 (≈ 1.14 µM) |  | 0.63 (≈ 1.43 µM) | 0.63 (≈ 1.43 µM) |  |  |  |  |  |
| 63.5 | > 100 | CCOC(=O)c1cn(C2CC2)c2cc(N3CCC4=C(C3)C(=O)C(C)CS4)c(N)cc2c1=O (centres undefined) |  |  |  |  |  |  |  |  |  |  |  |  |
